According to patent publication US6838565B2, “Substituted benzoic acid amides, their preparation and their use as pharmaceutical compositions” (Boehringer Ingelheim Pharma GmbH & Co. KG, priority 2002, dated 2005):
Counter-ions that a name gives are not always drawn.

Target: T1, human factor Xa (Homo sapiens, UniProt P00742)
T1 construct: released from the colourless chromogenic substrate by human factor Xa; purchased Roche
Assay: Inhibition of factor Xa, enzyme-kinetic measurement with chromogenic substrate (Chromozym X)
Format: biochemical
Settings: pNA release from Chromozym X 200 μMol/l, 405 nm, 37° C., pH 8.0, factor Xa 0.175 U/ml
Description: Method: Enzyme-kinetic measurement with chromogenic substrate. The quantity of p-nitroaniline (pNA) released from the colourless chromogenic substrate by human factor Xa is determined photometrically at 405 nm. It is proportional to the activity of the enzyme used. The inhibition of the enzyme activity by the test substance (in relation to the solvent control) is determined at various concentrations of test substance and from this the IC50 is calculated, as the concentration which inhibits the factor Xa used by 50%.
• Tris(hydroxymethyl)-aminomethane buffer (100 mmol) and sodium chloride (150 mmol), pH 8.0 • Factor Xa (Roche), spec. activity: 10 U/0.5 ml, final concentration: 0.175 U/ml for each reaction mixture • Substrate Chromozym X (Roche), final concentration: 200 μMol/l for each reaction mixture • Test substance: final concentration 100, 30, 10, 3, 1, 0.3, 0.1, 0.03, 0.01, 0.003, 0.001 μMol/l Procedure
10 μl of a 23.5-times concentrated starting solution of the test substance or solvent (control), 175 μl of tris(hydroxymethyl)-aminomethane buffer and 25 μl of a 1.65 U/ml Factor Xa working solution are incubated for 10 minutes at 37° C. After the addition of 25 μl of Chromozym X working solution (1.88 μmol/l) the sample is measured in a photometer (SpectraMax 250) at 405 nm for 150 seconds at 37° C.
• 1. […]

T1 sequence (P00742 235-488 limits assumed): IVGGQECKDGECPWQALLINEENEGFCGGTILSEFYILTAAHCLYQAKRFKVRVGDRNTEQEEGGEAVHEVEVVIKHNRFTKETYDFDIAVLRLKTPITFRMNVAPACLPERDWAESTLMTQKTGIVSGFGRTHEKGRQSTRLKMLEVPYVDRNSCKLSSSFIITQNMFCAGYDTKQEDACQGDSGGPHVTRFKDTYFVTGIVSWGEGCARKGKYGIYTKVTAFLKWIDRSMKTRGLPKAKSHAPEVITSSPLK
T1 sequence (P00742 41-179 partner limits assumed): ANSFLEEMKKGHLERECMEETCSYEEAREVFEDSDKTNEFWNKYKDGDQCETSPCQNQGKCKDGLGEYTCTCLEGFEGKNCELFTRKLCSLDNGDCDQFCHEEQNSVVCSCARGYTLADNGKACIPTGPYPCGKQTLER

## Cc1cc(C(=O)NC(Cc2nnn[nH]2)c2cccc(C(=N)N)c2)ccc1C(=O)N1CCCC1 (centres unmarked) [(2), N-[1-(3-amidino-phenyl)-2-(1H-tetrazol-5-yl)-ethyl]-3-methyl-4-(pyrrolidin-1-carbonyl)-benzamide-hydrochloride]
  IC50: 0.026 µM

## Cc1cc(C(=O)NC(Cc2nnn[nH]2)c2cccc(C(=N)N)c2)ccc1C(=O)N1CC=CC1 (centres unmarked) [(1), N-[1-(3-amidino-phenyl)-2-(1H-tetrazol-5-yl)-ethyl]-4-(2,5-dihydro-pyrrol-1-yl-carbonyl)-3-methyl-benzamide-hydrochloride]
  IC50: 0.008 µM
